Drawing on patent US7838676B2, “Beta-secretase modulators and methods of use” (Amgen Inc., priority 2005, dated 2010), this text covers IC50 for 7 compounds.

pIC50: −log10 of the molar value.

The test relates to Aβ40 in conditioned medium of APP containing cells. As to the kind of experiment: BACE Cell-Based Assay (Aβ40 sandwich ELISA, HEK-293 cells stably expressing APP). Particulars: Homo sapiens, HEK293, inhibition of Aβ 40 in conditioned media after 24 h. As for the experimental part:
The cell-based assay measures inhibition or reduction of Aβ40 in conditioned medium of test compound treated APP containing cells.
Cells stably expressing Amyloid Precursor Protein (APP) were plated at a density of 40K cells/well in 96 well plates (Costar). The cells were cultivated for 24 h at 37° C. and 5% CO2 in DMEM supplemented with 10% FBS. The test compounds were then added to cells in 10-point dose response concentrations with the starting concentration being either 100 μM or 10 μM. The compounds were diluted from stock solutions in DMSO and the final DMSO concentration of the test compounds on cells was 0.1%. After 24 h of incubation with the test compounds the supernatant conditioned media was collected and the Aβ 40 levels were determined using a sandwich ELISA. The IC50 of the compound was calculated from the percent of control or percent inhibition of Aβ 40 as a function of the concentration of the test compound.
The sandwich ELISA to detect Aβ 40 was performed in 96 well microtiter plates, which were pre-treated with goat anti-rabbit IgG (Pierce). The capture and detecting antibody pair that were used to detect Aβ 40 from cell supernatants were affinity purified pAb40 (Biosource) and biotinylated 6E10 (Signet Labs Inc.), respectively. The optimal concentration for the pAb40 antibody was 3 μg/ml in Superblock/TBS (Pierce) that was supplemented with 0.05% Tween 20 (Sigma). Optimal concentration for the detection antibody 6E10-biotinylated was 0.5 μg/ml in Superblock/TBS (Pierce) that had been supplemented with 2% normal goat serum and 2% normal mouse serum.
Cellular supernatants were incubated with the capture antibody for 3 h at 4° C., followed by 3 wash steps in TBS-tween (0.05%). The detecting antibody incubation was for 2 h at 4° C., again followed by the wash steps as described previously. The final readout of the ELISA is Time-Resolved Fluorescence (counts per minute) using Delfia reagents Streptavidin-Europium and Enhancement solutions (Perkin Elmer) and the Victor 2 multilabel counter (Perkin Elmer).

Compound `O=C(N[C@@H](Cc1ccccc1)[C@H](O)CN[C@H]1CC2(CCC2)Oc2ccc(Br)cc21)c1ccno1` [Example 162, N-((1S,2R)-3-(((4S)-6-bromo-3,4-dihydrospiro[chromene-2,1′-cyclobutan]-4-yl)amino)-2-hydroxy-1-(phenylmethyl)propyl)-5-isoxazolecarboxamide] gave a pIC50 of at least 5.30.

For the compound `CCc1ccc2c(c1)[C@@H](NC[C@@H](O)[C@H](Cc1ccccc1)NC(=O)c1ccnc(N3CCCCC3)c1)CC1(CCCC1)O2` [Example 167, N-((2S,3R)-4-((S)-6-ethyl-2,2-spirocyclopentylchroman-4-ylamino)-3-hydroxy-1-phenylbutan-2-yl)-2-(piperidin-1-yl)isonicotinamide], the pIC50 is at least 5.30.

For the compound `CCc1ccc2c(c1)[C@@H](NC[C@@H](O)[C@H](Cc1ccccc1)NC(=O)c1cc(N3CCCC3=O)ccc1OC)CC1(CCCC1)O2` [Example 30, N-((2S,3R)-4-((S)-6-ethyl-2,2-spirocyclopentylchroman-4-ylamino)-3-hydroxy-1-phenylbutan-2-yl)-2-methoxy-5-(2-oxopyrrolidin-1-yl)benzamide], the pIC50 is at least 5.30.

For the compound `Cc1cnc2c(c1)[C@@H](NC[C@@H](O)[C@H](Cc1cc(F)cc(F)c1)NC(=O)c1ccc(N3CCCC3=O)c(F)c1)CC1(CCC1)C2` [Example 146, N-((1S,2R)-1-((3,5-difluorophenyl)methyl)-2-hydroxy-3-(((5′S)-3′-methyl-5′,8′-dihydro-6′H-spiro[cyclobutane-1,7′-quinolin]-5′-yl)amino)propyl)-3-fluoro-4-(2-oxo-1-pyrrolidinyl)benzamide], the pIC50 was at least 5.30.

Compound `CCc1ccc2c(c1)[C@@H](NC[C@@H](O)[C@H](Cc1ccccc1)NC(=O)c1cncnc1)CC1(CCC1)O2` [Example 19, N-((2S,3R)-4-((S)-6-ethyl-2,2-spirocyclobutylchroman-4-ylamino)-3-hydroxy-1-phenylbutan-2-yl)pyrimidine-5-carboxamide] had a pIC50 of at least 5.30.

As for `CCc1ccc2c(c1)[C@@H](NC[C@@H](O)[C@H](Cc1ccccc1)NC(=O)c1ccnc(N3CCOCC3)c1)CC1(CCCC1)O2` [Example 169, N-((2S,3R)-4-((S)-6-ethyl-2,2-spirocyclopentylchroman-4-ylamino)-3-hydroxy-1-phenylbutan-2-yl)-2-morpholinoisonicotinamide], the pIC50 was at least 5.30.

For `CCc1ccc2c(c1)[C@@H](NC[C@@H](O)[C@H](Cc1ccccc1)NC(=O)c1cccc(-c3ccccn3)c1)CC1(CCCC1)O2` [Example 106], the pIC50 is at least 5.30.
